# Results reported in patent publication US20060132952A1, “Enhanced data storage and retrieval devices and systems and methods for utilizing same” (priority 2002, published 2006).
# What was measured:
# [1] = Sucrose solubility in conditioned (sodium lamp) vs control water at room temperature (22° C.); format: physicochemical
# Description: Beaker “II” was placed under another sodium lamp 12 as like Beaker “KK”; and Beaker “JJ” was placed in the same incubator as Beaker “LL”. […] Specifically, Beaker “GG” was placed under another sodium lamp 12 as like Beaker “KK” and Beaker “II”; and Becker “HH” was placed into the same incubator as Beaker “LL” and “II”.
# [2] = Phenyl salicylate solubility in conditioned (neon lamp) vs unconditioned acetone at room temperature (22° C.); format: physicochemical; details: equilibrated about 20 hours
# Description: Acetone (about 1 ml) was pipetted into small glass test tubes and stoppers placed in the tube. Tubes were placed under a neon lam; (about 8 m/cm^2) in an otherwise dark room for about 1-5 hours at about 28° C. ambient temperature. Tubes were also placed simultaneously in an incubator at 28° C. for about 1.5 hours.
# Phenyl solicylate (about 3.50 grams) was added to each tube leaving a layer undissolved on the bottom of each tube. The solutions were allowed to equilibrate (about 20 hours). Solution was filtered over the crystals and 0.500 ml pipetted into fresh tubes. After the acetone evaporated, dry weights of phenyl solicylate per ml dissolved in conditioned and unconditioned acetone were determined.
"Weight (dry sucrose weight per 100 ml solution) ([1]; GG, water under sodium lamp one hour, 23.5° C.)","Weight (dry sucrose weight per 100 ml solution) ([1]; HH, control water 1 hour, 23° C.)","Weight (dry sucrose weight per 100 ml solution) ([1]; II, water under sodium lamp two hours, 23.5° C.)","Weight (dry sucrose weight per 100 ml solution) ([1]; JJ, control water 2 hours, 23.5° C.)","Weight (dry sucrose weight per 100 ml solution) ([1]; KK, water under Na lamp three hours, 23.5° C.)","Weight (dry sucrose weight per 100 ml solution) ([1]; LL, control water 3 hours, 23.5° C.)",more sucrose dissolved by conditioned water than by untreated control water ([1]; two hours exposure of water to sodium lamp),Average amount dissolved in unconditioned acetone ([2]; acetone kept in incubator at 28° C.),Average amount dissolved in conditioned acetone ([2]; acetone under neon lamp),SMILES
49 g/100 ml,49 g/100 ml,47 g/100 ml,44 g/100 ml,46 g/100 ml,49 g/100 ml,about 7%,,,OC[C@H]1O[C@@](CO)(O[C@H]2O[C@H](CO)[C@@H](O)[C@H](O)[C@H]2O)[C@@H](O)[C@@H]1O [Sucrose]
,,,,,,,0.68 g/mL,0.78 g/mL,O=C(Oc1ccccc1)c1ccccc1O [phenyl salicylate]
